Source: US10874675B2, “Pteridine dione monocarboxylate transporter inhibitors” (The Scripps Research Institute, priority 2015, dated 2020)

Tested on: Raji (Burkitt's) lymphoma cells
Assay: MTT assay for 4-day viability of Raji (Burkitt's) lymphoma cells
Assay type: cell-based
Conditions: Homo sapiens, 96 h, Raji cells (highly express MCT1), estimated values, read-out: approximate potency (EC50 nM)
Text: Specific Examples of compounds of the invention, with estimated EC50 values determined using an MTT assay for 4-day viability of Raji (Burkitt's) lymphoma cells, a cell line known to highly express MCT1 and to be sensitive to small molecule MCT inhibitors,^4 are shown in Table 3. Assay protocols follow those described in the literature.^4 Other assays that are not described here but that are standard in the field, such as an assay for competitive inhibition of transport of radiolabeled lactic acid, an MCT substrate, may also be useful in establishing mechanism of action of these compounds.

SMILES	EC50 [nM]
CC(C)Cn1c(=O)n(C)c(=O)c2nc(CCCCCO)c(COc3cccc(N)c3)nc21 [Example 33, 7-((3-aminophenoxy)methyl)-6-(5-hydroxypentyl)-1-isobutyl-3-methylpteridine-2,4(1H,3H)-dione]	≤ 100
CC(C)Cn1c(=O)n(C)c(=O)c2nc(CCCCCO)c(COc3cncc4ccccc34)nc21 [Example 5]	< 50
CC(C)Cn1c(=O)n(C)c(=O)c2nc(CCCCCO)c(COc3ccc(-c4ccccc4)cc3)nc21 [Example 14, 7-(([1,1′-biphenyl]-4-yloxy)methyl)-6-(5-hydroxypentyl)-1-isobutyl-3-methylpteridine-2,4(1H,3H)-dione]	≤ 100
CC(C)Cn1c(=O)n(C)c(=O)c2nc(CCCCCO)c(COc3ccc4ccccc4c3)nc21 [Example 10]	< 50
CC(C)Cn1c(=O)n(C)c(=O)c2nc(CCCCCO)c(COc3ccccc3C(F)(F)F)nc21 [Example 7, 6-(5-hydroxypentyl)-1-isobutyl-3-methyl-7-((2-(trifluoromethyl)phenoxy)methyl)pteridine-2,4(1H,3H)-dione]	< 50
CC(C)Cn1c(=O)n(C)c(=O)c2nc(CCCCCO)c(COc3ccccc3Cl)nc21 [Example 13, 7-((2-chlorophenoxy)methyl)-6-(5-hydroxypentyl)-1-isobutyl-3-methylpteridine-2,4(1H,3H)-dione]	< 50
CC(C)Cn1c(=O)n(C)c(=O)c2nc(CCCCCO)c(COc3ccc(Br)cc3Br)nc21 [Example 19, 7-((2,4-dibromophenoxy)methyl)-6-(5-hydroxypentyl)-1-isobutyl-3-methylpteridine-2,4(1H,3H)-dione]	≤ 250
CC(C)Cn1c(=O)n(C)c(=O)c2nc(CCc3ccccc3CO)c(COc3cccc4ccccc34)nc21 [Example 35, 6-(2-(hydroxymethyl)phenethyl)-1-isobutyl-3-methyl-7-((naphthalen-1-yloxy)methyl)pteridine-2,4(1H,3H)-dione]	≤ 100
CC(C)Cn1c(=O)n(C)c(=O)c2nc(CCCCCO)c(COc3cccc4ccncc34)nc21 [Example 25, 6-(5-hydroxypentyl)-1-isobutyl-7-((isoquinolin-8-yloxy)methyl)-3-methylpteridine-2,4(1H,3H)-dione]	≤ 250
CC(C)Cn1c(=O)n(C)c(=O)c2nc(CCCCCO)c(COc3cccc4nccnc34)nc21 [Example 30, 6-(5-hydroxypentyl)-1-isobutyl-3-methyl-7-((quinoxalin-5-yloxy)methyl)pteridine-2,4(1H,3H)-dione]	≤ 1000
CC(C)Cn1c(=O)n(C)c(=O)c2nc(CCCCCO)c(COc3cccc4cccnc34)nc21 [Example 26, 6-(5-hydroxypentyl)-1-isobutyl-3-methyl-7-((quinolin-8-yloxy)methyl)pteridine-2,4(1H,3H)-dione]	≤ 500
CC(C)Cn1c(=O)n(C)c(=O)c2nc(CCCCCO)c(COc3ccccc3)nc21 [Example 15, 6-(5-hydroxypentyl)-1-isobutyl-3-methyl-7-(phenoxymethyl)pteridine-2,4(1H,3H)-dione]	≤ 100
CC(C)Cn1c(=O)n(C)c(=O)c2nc(CCCCCO)c(COc3ccc4ncccc4c3)nc21 [Example 18, 6-(5-hydroxypentyl)-1-isobutyl-3-methyl-7-((quinolin-6-yloxy)methyl)pteridine-2,4(1H,3H)-dione]	≤ 100
CC(C)Cn1c(=O)n(C)c(=O)c2nc(CCCCCO)c(COc3ccnc4ccccc34)nc21 [Example 12, 6-(5-hydroxypentyl)-1-isobutyl-3-methyl-7-((quinolin-4-yloxy)methyl)pteridine-2,4(1H,3H)-dione]	< 50
CC(C)Cn1c(=O)n(C)c(=O)c2nc(CCCCCO)c(COc3ccccc3C#N)nc21 [Example 34, 2-((6-(5-hydroxypentyl)-1-isobutyl-3-methyl-2,4-dioxo-1,2,3,4-tetrahydropteridin-7-yl)methoxy)benzonitrile]	≥ 2000
CC(C)Cn1c(=O)n(C)c(=O)c2nc(CCCCCO)c(COc3cc4ccccc4cn3)nc21 [Example 27, 6-(5-hydroxypentyl)-1-isobutyl-7-((isoquinolin-3-yloxy)methyl)-3-methylpteridine-2,4(1H,3H)-dione]	≤ 500
CC(C)Cn1c(=O)n(C)c(=O)c2nc(CCCCCO)c(COc3cccc(C(F)(F)F)c3)nc21 [Example 16, 6-(5-hydroxypentyl)-1-isobutyl-3-methyl-7-((3-(trifluoromethyl)phenoxy)methyl)pteridine-2,4(1H,3H)-dione]	≤ 100
CC(C)Cn1c(=O)n(C)c(=O)c2nc(CCCCCO)c(COc3cccc4[nH]ccc34)nc21 [Example 6, 7-(((1H-indol-4-yl)oxy)methyl)-6-(5-hydroxypentyl)-1-isobutyl-3-methylpteridine-2,4(1H,3H)-dione]	< 50

Results, then the compound that gave them:

EC50 [nM]	SMILES
300	CC(C)Cn1c(=O)n(C)c(=O)c2nc(CCCCCO)c(COc3ccc([N+](=O)[O-])c4ccccc34)nc21 [Example 8, 6-(5-hydroxypentyl)-1-isobutyl-3-methyl-7-(((4-nitronaphthalen-1-yl)oxy)methyl)pteridine-2,4(1H,3H)-dione]
≤ 100	CC(C)Cn1c(=O)n(C)c(=O)c2nc(CCCCCO)c(COc3ccccc3F)nc21 [Example 17, 7-((2-fluorophenoxy)methyl)-6-(5-hydroxypentyl)-1-isobutyl-3-methylpteridine-2,4(1H,3H)-dione]
≤ 1000	CC(C)Cn1c(=O)n(C)c(=O)c2nc(CCCCCO)c(COc3cccc([N+](=O)[O-])c3)nc21 [Example 32, 6-(5-hydroxypentyl)-1-isobutyl-3-methyl-7-((3-nitrophenoxy)methyl)pteridine-2,4(1H,3H)-dione]
≤ 250	CC(C)Cn1c(=O)n(C)c(=O)c2nc(CCCCCO)c(COc3ccccc3-c3ccccc3)nc21 [Example 23, 7-(([1,1′-biphenyl]-2-yloxy)methyl)-6-(5-hydroxypentyl)-1-isobutyl-3-methylpteridine-2,4(1H,3H)-dione]
≤ 1000	CC(C)Cn1c(=O)n(C)c(=O)c2nc(CCCCCO)c(COc3c(Br)cc(Br)c4cnccc34)nc21 [Example 29, 7-(((6,8-dibromoisoquinolin-5-yl)oxy)methyl)-6-(5-hydroxypentyl)-1-isobutyl-3-methylpteridine-2,4(1H,3H)-dione]
≤ 250	CC(C)Cn1c(=O)n(C)c(=O)c2nc(CCCCCO)c(COc3ccc(C(F)(F)F)cc3)nc21 [Example 22, 6-(5-hydroxypentyl)-1-isobutyl-3-methyl-7-((4-(trifluoromethyl)phenoxy)methyl)pteridine-2,4(1H,3H)-dione]
< 50	CC(C)Cn1c(=O)n(C)c(=O)c2nc(CCCCCO)c(COc3ccc(N)c4ccccc34)nc21 [Example 9, 7-(((4-aminonaphthalen-1-yl)oxy)methyl)-6-(5-hydroxypentyl)-1-isobutyl-3-methylpteridine-2,4(1H,3H)-dione]
< 50	CC(C)Cn1c(=O)n(C)c(=O)c2nc(CCCCCO)c(COc3cccc4ccccc34)nc21 [Example 2, 6-(5-hydroxypentyl)-1-isobutyl-3-methyl-7-((naphthalen-1-yloxy)methyl)pteridine-2,4(1H,3H)-dione]
≤ 250	CC(C)Cn1c(=O)n(C)c(=O)c2nc(CCCCCO)c(COc3ccc4cccnc4c3)nc21 [Example 20, 6-(5-hydroxypentyl)-1-isobutyl-3-methyl-7-((quinolin-7-yloxy)methyl)pteridine-2,4(1H,3H)-dione]
≤ 1000	CC(C)Cn1c(=O)n(C)c(=O)c2nc(CCCCCO)c(COc3ccncc3)nc21 [Example 28, 6-(5-hydroxypentyl)-1-isobutyl-3-methyl-7-((pyridin-4-yloxy)methyl)pteridine-2,4(1H,3H)-dione]
≤ 250	CC(C)Cn1c(=O)n(C)c(=O)c2nc(CCCCCO)c(COc3cc(F)ccc3Br)nc21 [Example 24, 7-((2-bromo-5-fluorophenoxy)methyl)-6-(5-hydroxypentyl)-1-isobutyl-3-methylpteridine-2,4(1H,3H)-dione]
≤ 1000	CC(C)Cn1c(=O)n(C)c(=O)c2nc(CCCCCO)c(COc3cccnc3)nc21 [Example 31, 6-(5-hydroxypentyl)-1-isobutyl-3-methyl-7-((pyridin-3-yloxy)methyl)pteridine-2,4(1H,3H)-dione]
≤ 250	CC(C)Cn1c(=O)n(C)c(=O)c2nc(CCCCCO)c(COc3ccc(Cl)cc3Br)nc21 [Example 21, 7-((2-bromo-4-chlorophenoxy)methyl)-6-(5-hydroxypentyl)-1-isobutyl-3-methylpteridine-2,4(1H,3H)-dione]
< 50	CC(C)Cn1c(=O)n(C)c(=O)c2nc(CCCCCO)c(COc3ccccc3Br)nc21 [Example 11, 7-((2-bromophenoxy)methyl)-6-(5-hydroxypentyl)-1-isobutyl-3-methylpteridine-2,4(1H,3H)-dione]
